# Results published in patent US20140011822A1, “METHODS AND MATERIALS FOR REDUCING VENOUS STENOSIS FORMATION OF AN ARTERIOVENOUS FISTULA OR GRAFT” (priority 2011, published 2014).
# Key:
# α-SMA [1] = assay: Confocal microscopy for α-SMA plus phalloidin in NIH 3T3 cells, simvastatin; format: cell-based
# Experimental: (§1) One hundred thousand NIH 3T3 cells were treated with simvastatin (1 μM, 5 μM, or 10 μM) or controls and made hypoxic for 24 hours as described elsewhere (Misra et al., J. Vasc. Interv. Radiol., 21:896-902 (2010)).
# NIH 3T3 cells = assay: Proliferation (thymidine incorporation) assay in NIH 3T3 cells, simvastatin; format: cell-based
# Experimental: as §1
# One hundred thousand NIH 3T3 cells were treated with simvastatin or controls and made hypoxic for 24 hours. Next, they were seeded in a 6-well plate and cultured for 24 hours in DMEM medium. After 20 hours, […] of (^3H) thymidine was added to each well. Four hours later, the cells were washed with chilled PBS, fixed with 100% cold methanol, and collected for measurement of trichloroacetic acid-precipitable for radioactivity. Experiments were repeated three times for each time point.
# [2] = test system: apoptosis at the outflow vein; assay: TUNEL staining of outflow vein, simvastatin; format: in vivo, mice; conditions: for average increase of TUNEL staining: vs control
# Experimental: TUNEL staining was performed on paraffin-embedded sections from the outflow vein after treatment with either simvastatin or controls as specified by the manufacturer (DeadEnd Colorimetric tunnel assay system, G7360, Promega, Madison, Wis.).
# (§2) Morphometric analysis was performed as described elsewhere (Misra et al., Kidney Int., 68:2890-2900 (2005); and Misra et al., Am. J. Physiol. Heart Circ. Physiol., 294:H2219-2230 (2008)). Briefly, the outflow vein was sectioned into multiple contiguous 4-μm paraffin embedded sections. Typically, 2 to 3 sections per animal for each group (simvastatin and controls) and time point (day 14 and day 28) were photographed and then quantified using KS 400 (Carl Zeiss, Inc., Thornwood, N.Y.) semiquantitative program.
# MMP-9 [3] = assay: RT-PCR for MMP-9 at outflow vein, simvastatin; format: in vivo, mice
# Experimental: (§3) Animals were housed at 22° C. temperature, 41% relative humidity, and 12-/12-hour light/dark cycles. Animals were allowed access to water and food ad libitum. […] Sixty-eight male C57BL/6 mice (Jackson Laboratories, Bar Harbor, Me.) weighing 25-30 grams were used for the present study (FIG. 18). Chronic kidney disease was created by surgical removal of the right kidney accompanied by ligation of the arterial blood supply to the upper pole of the left kidney as described elsewhere (Misra et al., J. Vasc. Interv. Radiol., 21:1255-1261 (2010); see, also, FIG. 18A). Three weeks after nephrectomy, the animals were started on simvastatin (40 mg/kg administered i.p. three times per week) or PBS (equal amount of volume used for simvastatin i.p. controls). Simvastatin was prepared as described elsewhere (Wilson et al., Arterioscler Thromb. Vasc. Biol., 21:122-128 (2001)). A week later, an AVF was created by connecting the right carotid artery to the ipsilateral jugular vein (FIG. 18B; see, also, Misra et al., J. Vasc. Interv. Radiol., 21:1255-1261 (2010) and Yang et al., J. Vasc. Interv. Radiol., 20:946-950 (2009)). Animals were sacrificed at day 7, day 14, and day 28 following AVF placement for real time polymerase chain reaction (RT-PCR) and histomorphometric analyses (FIG. 18C). Serum BUN and creatinine were measured by removing blood from the tail vein at baseline (before nephrectomy), at AVF creation, and at the time of sacrifice. […] These animals were started on simvastatin (40 mg/kg i.p.) or PBS (equal amount of volume i.p.) every other day one week before AVF placement and then sacrificed four weeks after fistula placement for histomorphometric analysis.
# (§4) The tissue was stored in RNA stabilizing reagent (Qiagen, Gaithersburg, Md.) as per the manufacturer's guidelines. To isolate the RNA, the specimens were homogenized, and total RNA was isolated using RNeasy mini kit (Qiagen) (Misra et al., J. Vasc. Interv. Radiol., 21:1255-1261 (2010); and Yang et al., J. Vasc. Interv. Radiol., 20:946-950 (2009)).
# (§5) Expression for the gene of interest was determined using RT-PCR analysis as described elsewhere (Misra et al., J. Vasc. Interv. Radiol., 21:1255-1261 (2010)). Commercial PCR primers for the gene of interest were purchased from SA Biosciences (Frederick, Md.).
# Ki-67 = Ki-67 staining of outflow vein, simvastatin; format: in vivo, mice; conditions: vs control
# Experimental: Multiple serial four-micrometer sections were stained and analyzed. Cellular proliferation was determined by staining for Ki-67 on sections removed from the outflow vein for simvastatin treated vessels or control groups. Smooth muscle density (α-SMA) or proliferation index (Ki-67) was determined by staining on sections removed from the outflow vein by performing quantification at the different time points. Immunohistochemistry for Ki-67 and α-SMA was performed on paraffin-embedded sections from the outflow vein after transfection with either simvastatin or controls using the Vectastain Elite ABC system (Vector Laboratories, Burlingame, Calif., USA). The following antibodies were used: mouse monoclonal antibody Ki-67 (DAKO, Carpentaria, Calif.; 1:400) or rabbit polyclonal antibody to mouse for α-SMA (Abcam, Cambridge, Mass.; 1:400).
# as §2
# α-SMA [4] = assay: Western blot of α-SMA in NIH 3T3 cells, simvastatin; format: cell-based; conditions: 10 μM, 24 hours of hypoxia, vs control
# Experimental: as §1
# The differentiation of fibroblasts to myofibroblasts was assessed by performing Western blot analysis for α-SMA. The cultured cells were processed for Western analysis using rabbit polyclonal antibody as described elsewhere (Misra et al., J. Vasc. Interv. Radiol., 19:252-259 (2008)).
# VEGF-A = assay: RT-PCR for VEGF-A in kidneys, simvastatin; format: in vivo, mice
# Experimental: (§6) Animals were housed at 22° C. temperature, 41% relative humidity, and 12-/12-hour light/dark cycles. Animals were allowed access to water and food ad libitum. […] Sixty-eight male C57BL/6 mice (Jackson Laboratories, Bar Harbor, Me.) weighing 25-30 grams were used for the present study (FIG. 18). Chronic kidney disease was created by surgical removal of the right kidney accompanied by ligation of the arterial blood supply to the upper pole of the left kidney as described elsewhere (Misra et al., J. Vasc. Interv. Radiol., 21:1255-1261 (2010); see, also, FIG. 18A). Three weeks after nephrectomy, the animals were started on simvastatin (40 mg/kg administered i.p. three times per week) or PBS (equal amount of volume used for simvastatin i.p. controls). Simvastatin was prepared as described elsewhere (Wilson et al., Arterioscler Thromb. Vasc. Biol., 21:122-128 (2001)). […] Serum BUN and creatinine were measured by removing blood from the tail vein at baseline (before nephrectomy), at AVF creation, and at the time of sacrifice. […]
# (§7) Expression for the gene of interest was determined using RT-PCR analysis as described elsewhere (Misra et al., J. Vasc. Interv. Radiol., 21:1255-1261 (2010)). […]
# caspase 3 = assay: Caspase 3 activity in NIH 3T3 cells, simvastatin; format: cell-based; conditions: 24 hours hypoxia
# Experimental: as §1
# Apoptosis was assessed using an ELISA assay for caspase 3. Cellular protein was extracted from one hundred thousand cultured cells as described elsewhere (Misra et al., J. Vasc. Interv. Radiol., 21:896-902 (2010)). The enzymatic activity of caspase 3 was accessed by Caspase Glo assay (G811C, Promega, Madison, Wis.).
# MMP-9 [5] = assay: RT-PCR for MMP-9 in kidneys, simvastatin; format: in vivo, mice
# Experimental: as §3, §4, §5
# MMP-2 = assay: RT-PCR for MMP-2 in kidneys, simvastatin; format: in vivo, mice
# Experimental: as §6, §7
# HIF-1α = assay: RT-PCR for HIF-1α at outflow vein, simvastatin; format: in vivo, mice; conditions: for average reduction of HIF-1α gene expression: vs control
# Experimental: as §3, §4, §5
# [6] = test system: outflow vein of arteriovenous fistula; assay: Histomorphometry of outflow vein (neointima, media/adventitia, lumen area, cell density), simvastatin; format: in vivo, mice; conditions: day 14
# Experimental: as §3
# At euthanasia, all mice were anesthetized, and the arterio-venous fistula was carefully dissected from of the surrounding tissue. Animals were euthanized by use of CO2 asphyxiation, and the outflow veins harvested for RT-PCR or histomorphometric analyses as described elsewhere (Misra et al., Kidney Int., 68:2890-2900 (2005); Misra et al., J. Vasc. Interv. Radiol., 21:1255-1261 (2010); and Misra et al., Am. J. Physiol. Heart Circ. Physiol., 294:H2219-2230 (2008)).
# as §2
smiles,measurement,setting,value
CCC(C)(C)C(=O)O[C@H]1C[C@@H](C)C=C2C=C[C@H](C)[C@H](CC[C@@H]3C[C@@H](O)CC(=O)O3)[C@H]21 [simvastatin],average reduction in α-SMA plus phalloidin staining,"α-SMA [1]; 5 μM, 24 hours of hypoxia",52%
same,average reduction in α-SMA plus phalloidin staining,"α-SMA [1]; 5 μM, 24 hours of normoxia",62%
same,average reduction in α-SMA plus phalloidin staining,"α-SMA [1]; 10 μM, 24 hours of hypoxia",82%
same,average reduction in α-SMA plus phalloidin staining,"α-SMA [1]; 10 μM, 24 hours of normoxia",94%
same,average reduction in proliferative ability,"NIH 3T3 cells; 5 μM, 24 hours hypoxia",83%
same,average reduction in proliferative ability,"NIH 3T3 cells; 5 μM, 24 hours normoxia",75%
same,average reduction in proliferative ability,"NIH 3T3 cells; 10 μM, 24 hours hypoxia",92%
same,average reduction in proliferative ability,"NIH 3T3 cells; 10 μM, 24 hours normoxia",94%
same,average density of cells staining positive for TUNEL,[2]; day 14,25.26±2.78
same,average increase of TUNEL staining,[2]; day 14,366%
same,average density of cells staining positive for TUNEL,[2]; day 28,30.17±1.8
same,average increase of TUNEL staining,[2]; day 28,561%
same,increase of TUNEL staining,"[2]; day 28 normal, vs control (P=0.0136)",326%
same,average gene expression of MMP-9,MMP-9 [3]; day 7,0.19±0.03
same,Average reduction of MMP-9 gene expression,"MMP-9 [3]; day 7, vs control",69%
same,average gene expression of MMP-9,MMP-9 [3]; day 14,0.37±0.02
same,Average reduction of MMP-9 gene expression,"MMP-9 [3]; day 14, vs control",41%
same,average reduction of Ki-67 density,Ki-67; day 14,66%
same,average reduction of Ki-67 density,Ki-67; day 28,76%
same,average reduction of Ki-67 density,Ki-67; day 28 normal,77%
same,Average reduction in α-SMA production (Western blot),α-SMA [4],56%
same,average gene expression of VEGF-A,VEGF-A; day 28,1±0.02
same,Average reduction of VEGF-A gene expression,"VEGF-A; day 28, vs control",24%
same,average increase in caspase 3 activity,caspase 3; 5 μM,281%
same,average increase in caspase 3 activity,caspase 3; 10 μM,1103%
same,average gene expression of MMP-9,MMP-9 [5]; day 7,0.42±0.13
same,Average reduction of MMP-9 gene expression,"MMP-9 [5]; day 7, vs control",57%
same,average gene expression of MMP-9,MMP-9 [5]; day 28,0.64±0.09
same,Average reduction of MMP-9 gene expression,"MMP-9 [5]; day 28, vs control",44%
same,expression of MMP-2,MMP-2; day 28,0.78±0.09
same,Average reduction of MMP-2 expression,"MMP-2; day 28, vs control",42%
same,mean gene expression of HIF-1α,HIF-1α; day 7,0.45±0.12
same,average reduction of HIF-1α gene expression,HIF-1α; day 7,54%
same,mean gene expression of HIF-1α,HIF-1α; day 14,0.34±0.04
same,average reduction of HIF-1α gene expression,HIF-1α; day 14,54%
same,average area of the media/adventitia,[6],147603±4443 μm^2
same,average area of the neointima,[6],61864±12401 μm^2
same,average cell density of the media/adventitia,[6],3.27±0.33
same,average cell density of the neointima,[6],4.6±0.2
same,average lumen vessel area,[6],95051±21583
